One data set deals with Sprague Dawley male rat. The following applies: in vivo. How it is done:
Ten Sprague Dawley male rat 22 days of age and weighing 45-50 grams, were randomly divided into two groups. One group received the treatment described below. After 57 days of treatment, the animals from the non-treatment control group and those from the treatment group were sacrificed. The various organs were removed, trimmed of excess tissue and weighed. Body weights were taken weekly. Group I received no treatment; Group II received 10 μg of Compound N twice each day. The results are shown in Table I with each entry showing the mean value of the respective group.

Data set [1] has as its system Male rats. To be noted: rat, in vivo. How it is done:
In an experiment similar to that of Example 5 with Groups I and III being treated as shown, but Group II being treated like Group III except with only 1 μg of Compound N, the test was continued for 51 days, starting with 22-day old male rats, 5 animals per group. The animals were sacrificed on day 52. […] Another three groups of 5 male rats were treated in the identical fashion, but the treatment was extended from the age of 22 days to day 138 (116 days).

For data set [2], the system named is Male rats. The following applies: rat, in vivo. This is another data set of the same source.
Experimental: Male rats, 22 days of age, were divided into 3 groups of five animals each. The 3 groups were treated exactly as described in Example 3, but the experiment was continued for 153 days. After 115 days, these animals were bred to untreated, cycling females (each male was caged with 2 cycling females in pro-estrus for 3 consecutive days, on 3-5 separate occasions).

As to `CCNC(=O)[C@@H]1CCCN1C(=O)[C@H](CCCNC(=N)N)NC(=O)[C@H](CC(C)C)NC(=O)[C@@H](CC(C)C)NC(=O)[C@H](Cc1ccc(O)cc1)NC(=O)[C@H](CO)NC(=O)[C@H](Cc1c[nH]c2ccccc12)NC(=O)[C@H](Cc1c[nH]cn1)NC(=O)[C@@H]1CCC(=O)N1` [Compound N], the “Effect on normal weight gain and growth” value with Sprague Dawley male rat is “essentially no effect”. Also, in the data set on Male rats [1], the “Outward signs or organic changes over the control group” value was “None of the treated animals in this experiment showed any outward signs or organic changes”. Moreover, in the data set on Male rats [2], the “Breeding index (percentage of successful impregnations vs. opportunities to breed)” value is recorded as 23%, the “Course of resulting pregnancies” value is recorded as “progressed normal”, the Number of pups stood at 10.4 and the “Weight of pups on day 1” value is 6.9 g. Besides, in the data set with Male rats [2], the “Weight of pups on day 4” value is on record as 11.7 g, the “Weight of pups on day 11” value stood at 23.5 g and the “Weight of pups on day 21” value was 44.3 g.

For the origin of these results see patent publication US4005194A, “Treatment of prostatic hyperplasia” (Abbott Laboratories, priority 1975, dated 1977).
